Laboratory results: patent publication US8349827B2, “Substituted dipyrido-pyrimido-diazepine and benzo-pyrido-pyrimido compounds” (ArQule, Inc., priority 2009, dated 2013)

Columns and labels:
[1] = tested on: DLD-1; test: MTS assay, DLD-1 cells; type: cell-based; conditions: Homo sapiens, 72 hours
Description: (§1) Cells were maintained at 37° C., 5% CO2 in DMEM media supplemented with 1% fetal bovine serum, penicillin/streptomycin and fungizone (Invitrogen). Cells were seeded into 96-well tissue culture plates at 3000 per well and cultured at 37° C. for 18 hours. Test compounds were dissolved and diluted to 300× in DMSO then diluted 1:40 in DMEM. Cells were incubated with test compounds for 72 hours followed by incubation with tetrazolium compound (3-(4,5-dimethylthiazol-2-yl)-5-(3-carboxymethoxyphenyl)-2-(4-sulfophenyl)-2H-tetrazolium, inner salt; MTS) and the electron coupling reagent, phenazine methosulfate (PMS) for 4 hours. […] The ability of compounds to inhibit cell growth in this assay is correlated with the reduction of dehydrogenase enzyme activity found in metabolically active cells. The measurement of the absorbance of the formazan was assessed using an ENVISION™ (Perkin Elmer) microplate reader at 492 nm. The calculated IC50 value is the concentration of the test compound that causes a 50% decrease in the absorbance.

[2] = tested on: KATO III; test: MTS assay, KATO III cells; type: cell-based; conditions: Homo sapiens, 72 hours
Description: as §1

[3] = tested on: MDA-MB-231; test: MTS assay, MDA-MB-231 cells; type: cell-based; conditions: Homo sapiens, 72 hours
Description: as §1

[4] = tested on: NCI-H1299; test: MTS assay, NCI-H1299 cells; type: cell-based; conditions: Homo sapiens, 72 hours
Description: as §1

[5] = tested on: PACA-2; test: MTS assay, PACA-2 cells; type: cell-based; conditions: 72 hours
Description: as §1

[6] = tested on: PC-3; test: MTS assay, PC-3 cells; type: cell-based; conditions: Homo sapiens, 72 hours
Description: as §1

[7] = molecular target: ABL T315I (Homo sapiens, UniProt P00519, T315I); test: ABL Kinase Activity Assay (Elisa), ABL T315I; type: biochemical; conditions: ATP 100 μM, read-out: Abl(T315I) Enzymetic assay (Elisa) % inhibition
Description: (§2) ABL Kinase Activity Assay
(§3) The disclosed compounds were assayed for their ability to inhibit the activity of ABL kinase. Nunc Maxisorb plates were coated with streptavidin by overnight incubation with 100 μL per well of 1 μg/ml streptavidin in DPBS. Prior to the experiment, the plates were washed with TBST (3×200 μL) and blocked for at least 3 hours by adding 150 μL of 5% BSA/TBST. The plates were washed with TBST (3×200 μL/well) and left dry immediately before the capture step.
(§4) The disclosed test compounds and controls (Gleevec) were prepared using the following assay buffer@10× desired final concentration (50 mM Tris pH 7.0, 0.02 mg/ml BSA, 10 mM MgCl2, 0.1 mM Na3VO4, 1 mM EGTA, 0.01% NP-40, 1 mM DTT in 10% glycerol/water). In a reaction plate, 5 μl test article (or control) and 30 μl ABL or ABL T315I (0.089 nM final concentration, in the above buffer) were added rapidly. The plate was incubated for 20 minutes. To the reaction plate was added ATP (100 μM final concentration) and AblTide (128 nM final concentration) in a volume of 15 μl. The plate was incubated at room temperature for one hour.
(§5) From the reaction plate, 40 μl was transferred to the streptavidin coated plate. The capture plate was incubated at room temperature for 30 minutes, then washed 3× with TBST. To the capture plate was added 100 μL/well of cell signaling anti-phospho tyrosine at a dilution of 1:3000 in 2% BSA/TBST. The plate was incubated for two hours at room temperature then washed 3× with TBST. To the capture plate was added 100 μL/well of alkaline phosphatase tagged goat anti mouse antibody at a dilution of 1:4000 in 2% BSA/TBST. The plate was incubated for one hour at room temperature then washed 3× with TBST.
(§6) The fluorescent readout was initiated by the addition of 100 μl/well of Attophos reagent (6 mg/10 mL). The reading was done on the Perkin Elmer Envision system.

[8] = molecular target: ABL (Homo sapiens, UniProt P00519); test: ABL Kinase Activity Assay (Elisa), ABL; type: biochemical; conditions: ATP 100 μM, read-out: Abl Enzymetic assay (Elisa) % inhibition
Description: as §2, §3, §4, §5, §6

Structure (SMILES) | inhibition at 10 µM [7] [%] | inhibition at 10 µM [8] [%] | inhibition at 10 µM [1] [%] | inhibition at 10 µM [2] [%] | inhibition at 10 µM [3] [%] | inhibition at 10 µM [4] [%] | inhibition at 10 µM [5] [%] | inhibition at 10 µM [6] [%]
CCCC(C)Nc1ncc2c(n1)-c1cccnc1Nc1cnccc1-2 (centres unmarked) [Example 5, N-(1-methylbutyl)-9H-dipyrido[2,3-b:4′,3′-f]pyrimido[4,5-d]azepin-2-amine] | 80 to 100 | 80 to 100 | < 50 | 50 to 79 | < 50 | < 50 | < 50 | < 50
CCCCNc1ncc2c(n1)-c1cccnc1Nc1cnccc1-2 [Example 7, N-butyl-9H-dipyrido[2,3-b:4′,3′-f]pyrimido[4,5-d]azepin-2-amine] | 80 to 100 | 80 to 100 | < 50 | 50 to 79 | 50 to 79 | < 50 | < 50 | < 50
Clc1ccccc1CNc1ncc2c(n1)-c1cccnc1Nc1cnccc1-2 [Example 8, N-(2-chlorobenzyl)-9H-dipyrido[2,3-b:4′,3′-f]pyrimido[4,5-d]azepin-2-amine] | 80 to 100 | 50 to 79 | 80 to 100 | 80 to 100 | 80 to 100 | 80 to 100 | 80 to 100 | 80 to 100
Fc1ccc(CNc2ncc3c(n2)-c2cccnc2Nc2cnccc2-3)cc1 [Example 11, N-(4-fluorobenzyl)-9H-dipyrido[2,3-b:4′,3′-f]pyrimido[4,5-d]azepin-2-amine] | 80 to 100 | 80 to 100 | 80 to 100 | 80 to 100 | 80 to 100 | 80 to 100 | 80 to 100 | 80 to 100
Clc1ccc(CNc2ncc3c(n2)-c2cccnc2Nc2cnccc2-3)cc1 [Example 13, N-(4-chlorobenzyl)-9H-dipyrido[2,3-b:4′,3′-f]pyrimido[4,5-d]azepin-2-amine] | 80 to 100 | 50 to 79 | 50 to 79 | 50 to 79 | < 50 | 50 to 79 | < 50 | < 50
COc1ccc(CCNc2ncc3c(n2)-c2cccnc2Nc2cnccc2-3)cc1OC [Example 14, N-[2-(3,4-dimethoxyphenyl)ethyl]-9H-dipyrido[2,3-b:4′,3′-f]pyrimido[4,5-d]azepin-2-amine] | 80 to 100 | 80 to 100 | < 50 | < 50 | < 50 | < 50 | < 50 | < 50
Cc1ccccc1CCNc1ncc2c(n1)-c1cccnc1Nc1cnccc1-2 [Example 15, N-[2-(2-methylphenyl)ethyl]-9H-dipyrido[2,3-b:4′,3′-f]pyrimido[4,5-d]azepin-2-amine] | 80 to 100 | 80 to 100 | < 50 | 50 to 79 | < 50 | < 50 | < 50 | < 50
FC(F)(F)c1ccc(CNc2ncc3c(n2)-c2cccnc2Nc2cnccc2-3)cc1 [Example 21, N-[4-(trifluoromethyl)benzyl]-9H-dipyrido[2,3-b:4′,3′-f]pyrimido[4,5-d]azepin-2-amine] | < 50 | < 50 | 80 to 100 | 80 to 100 | 80 to 100 | 80 to 100 | 80 to 100 | 80 to 100

The next lines start with results.

inhibition at 10 µM [7] [%] | inhibition at 10 µM [8] [%] | Structure (SMILES) | inhibition at 10 µM [1] [%] | inhibition at 10 µM [2] [%] | inhibition at 10 µM [3] [%] | inhibition at 10 µM [4] [%] | inhibition at 10 µM [5] [%] | inhibition at 10 µM [6] [%]
< 50 | < 50 | COc1ccccc1CNc1ncc2c(n1)-c1cccnc1Nc1cnccc1-2 [Example 22, N-(2-methoxybenzyl)-9H-dipyrido[2,3-b:4′,3′-f]pyrimido[4,5-d]azepin-2-amine] | 50 to 79 | < 50 | 80 to 100 | 50 to 79 | < 50 | 50 to 79
< 50 | 50 to 79 | CCCN1CCC(Nc2ncc3c(n2)-c2cccnc2Nc2cnccc2-3)CC1 [Example 23, N-(1-propylpiperidin-4-yl)-9H-dipyrido[2,3-b:4′,3′-f]pyrimido[4,5-d]azepin-2-amine] | 80 to 100 | 80 to 100 | 80 to 100 | 80 to 100 | 80 to 100 | 80 to 100
80 to 100 | 80 to 100 | COc1cccc(CCNc2ncc3c(n2)-c2cccnc2Nc2cnccc2-3)c1 [Example 24, N-[2-(3-methoxyphenyl)ethyl]-9H-dipyrido[2,3-b:4′,3′-f]pyrimido[4,5-d]azepin-2-amine] | < 50 | 50 to 79 | < 50 | < 50 | < 50 | < 50
80 to 100 | 50 to 79 | Fc1cccc(CCNc2ncc3c(n2)-c2cccnc2Nc2cnccc2-3)c1 [Example 25, N-[2-(3-fluorophenyl)ethyl]-9H-dipyrido[2,3-b:4′,3′-f]pyrimido[4,5-d]azepin-2-amine] | 80 to 100 | 80 to 100 | 80 to 100 | 80 to 100 | 80 to 100 | 80 to 100
80 to 100 | 80 to 100 | c1ccc(OCCNc2ncc3c(n2)-c2cccnc2Nc2cnccc2-3)cc1 [Example 26, N-(2-phenoxyethyl)-9H-dipyrido[2,3-b:4′,3′-f]pyrimido[4,5-d]azepin-2-amine] | < 50 | 50 to 79 | < 50 | < 50 | < 50 | < 50
80 to 100 | 80 to 100 | O[C@H]1CC[C@H](Nc2ncc3c(n2)-c2cccnc2Nc2cnccc2-3)CC1 [Example 27, trans-4-(9H-dipyrido[2,3-b:4′,3′-f]pyrimido[4,5-d]azepin-2-ylamino)cyclohexanol] | < 50 | 80 to 100 | 50 to 79 | < 50 | < 50 | 50 to 79
80 to 100 | 80 to 100 | Fc1ccc(CNc2ncc3c(n2)-c2cccnc2Nc2cnccc2-3)cc1F [Example 33, N-(3,4-difluorobenzyl)-9H-dipyrido[2,3-b:4′,3′-f]pyrimido[4,5-d]azepin-2-amine] | 80 to 100 | 80 to 100 | 80 to 100 | 80 to 100 | 80 to 100 | 80 to 100
80 to 100 | 80 to 100 | c1ccc(-c2ccc(CNc3ncc4c(n3)-c3cccnc3Nc3cnccc3-4)cc2)cc1 [Example 34, N-(biphenyl-4-ylmethyl)-9H-dipyrido[2,3-b:4′,3′-f]pyrimido[4,5-d]azepin-2-amine] | 80 to 100 | 80 to 100 | 80 to 100 | 80 to 100 | 80 to 100 | 80 to 100
